The source of these data is PubChem BioAssay (NCI).

Some test systems named below: DLD-1 colon; NCI-H460 lung; M19-MEL melanoma; ACHN renal; DMS 273 small cell lung; LXFL 529 NSCLC; TK-10 renal; HT29 colon; MOLT-4 leukemia; IGROV1 ovarian; OVCAR-3 ovarian; HS 578T breast.
Holding throughout (experiment): inhibition of tumour cell growth, NCI panel, 48 h

Several values for one entry are separate records, joined by “and”; a condition that tells them apart may be missing. Identical values can stand only once.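 Each compound was tested at five concentrations against cells in 96-well plates for 48 hours. At the GI50, growth is halved. Definition used: TGI = concentration required for complete inhibition of growth.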

In the case of `COc1c(C(=O)c2ccc([N+](=O)[O-])cc2)cc(C(C)(C)C)cc1C(C)(C)C`, the TGI in the test on DLD-1 colon, with NCI-H460 lung, with M19-MEL melanoma, in the test on ACHN renal, in the test with DMS 273 small cell lung and with LXFL 529 NSCLC was over 100 µM in each case. Further, the TGI is over 100 µM in the test on TK-10 renal, 88 µM with HT29 colon, 39.9 µM with MOLT-4 leukemia and over 100 µM with IGROV1 ovarian.

In the case of `CC1=CC(=C(c2ccc(N)cc2)c2ccc(N)cc2)C=CC1=N`, the TGI in the test with DLD-1 colon is over 100 µM; in the test on NCI-H460 lung it was 7.3 µM and 28.9 µM and 15.8 µM; in the test on M19-MEL melanoma it was 14.5 µM; with OVCAR-3 ovarian, 5.49 µM and 15.1 µM and 5.5 µM; in the test on ACHN renal, 18.1 µM and 44.9 µM and 24.3 µM; with LXFL 529 NSCLC, 13.6 µM. Further, the TGI in the test with TK-10 renal is 15.6 µM and 50.2 µM and 19.5 µM; in the test with HT29 colon it was 10.7 µM and 29.9 µM and 11.3 µM; in the test with MOLT-4 leukemia, 6.77 µM and > 67 µM; in the test with IGROV1 ovarian, 35.9 µM and > 57.7 µM and 35.1 µM. The GI50 with NCI-H460 lung was 838 nM; in the test with OVCAR-3 ovarian, 1410 nM and 2140 nM; in the test on ACHN renal, 3900 nM and 5010 nM; with HS 578T breast it was 209 nM and 841 nM; in the test with TK-10 renal, 2990 nM and 4980 nM; with HT29 colon, 558 nM and 3080 nM. The GI50 in the test on MOLT-4 leukemia is 1490 nM; in the test on IGROV1 ovarian, 4060 nM and 5720 nM.

As for `CCOC(=O)CSC(=O)NCCCl`, the TGI in the test with DLD-1 colon, in the test on NCI-H460 lung, in the test with OVCAR-3 ovarian, in the test with ACHN renal, in the test with DMS 273 small cell lung and with LXFL 529 NSCLC was over 100 µM each time. Further, the TGI in the test on TK-10 renal, with HT29 colon, in the test on MOLT-4 leukemia and with IGROV1 ovarian was over 100 µM in each case. Also, the GI50 in the test on MOLT-4 leukemia is over 100000 nM.

In the case of `O=C1c2ccccc2C(=O)N1CCN(CCN1C(=O)c2ccccc2C1=O)Cn1cccn1`, the TGI in the test on DLD-1 colon, in the test with NCI-H460 lung, in the test with M19-MEL melanoma, in the test with OVCAR-3 ovarian, with ACHN renal and in the test with DMS 273 small cell lung was over 100 µM throughout. In addition, the TGI in the test on LXFL 529 NSCLC, in the test with TK-10 renal and in the test on MOLT-4 leukemia was over 100 µM each time.

Turning to `Clc1ccc2c(c1)N(c1ncnc3ccc(-c4cnc5[nH]ccc5c4)cc13)CC2`, the GI50 in the test with NCI-H460 lung was 952 nM; with OVCAR-3 ovarian it was 1670 nM; in the test with ACHN renal, 2120 nM; with HS 578T breast it was 555 nM; in the test with TK-10 renal, 1290 nM; in the test on HT29 colon it was 1030 nM. The GI50 with MOLT-4 leukemia was 954 nM; in the test with IGROV1 ovarian it was 304 nM. The TGI was 12.4 µM in the test with NCI-H460 lung; 20.4 µM with OVCAR-3 ovarian; 28.2 µM in the test with ACHN renal; 16.9 µM in the test on HS 578T breast; 14.5 µM in the test with TK-10 renal; 2.66 µM with HT29 colon. Also, the TGI is over 100 µM with MOLT-4 leukemia and 2.27 µM in the test with IGROV1 ovarian.

Consider `Clc1cccc(Cl)c1C1CSc2ccccc2N=C1c1ccccc1` (stereo unspecified), for which the GI50 with NCI-H460 lung was 4040 nM; with OVCAR-3 ovarian it was 3920 nM; in the test on ACHN renal, 2450 nM; in the test on HS 578T breast it was 6260 nM; in the test with TK-10 renal it was 3690 nM; with HT29 colon, 3170 nM. In addition, the GI50 in the test on MOLT-4 leukemia was 3860 nM; in the test with IGROV1 ovarian it was 3130 nM. For the same molecule, the TGI with NCI-H460 lung was 15.6 µM; in the test with OVCAR-3 ovarian, 13.4 µM; in the test with ACHN renal it was 7.3 µM; in the test on HS 578T breast it was 57.6 µM; in the test on TK-10 renal it was 9.27 µM; with HT29 colon, 8.64 µM. In addition, the TGI in the test on MOLT-4 leukemia worked out at 37.6 µM; in the test on IGROV1 ovarian, 11.8 µM.

As for `C=CC(=O)NCc1cccc(Nc2ncc(Br)c(NCCCNC(=O)C3CCC3)n2)c1`, the GI50 in the test on NCI-H460 lung was 941 nM and 1270 nM; with OVCAR-3 ovarian, 1570 nM and 1180 nM; in the test with ACHN renal it was 1660 nM and 712 nM; with HS 578T breast, 295 nM and 539 nM; in the test with TK-10 renal it was 410 nM and 1860 nM; in the test on HT29 colon it was 1670 nM and 270 nM. In addition, the GI50 was 1730 nM and 2280 nM in the test on MOLT-4 leukemia; 1170 nM and 732 nM in the test on IGROV1 ovarian. The TGI with NCI-H460 lung is 4.7 µM and 5.55 µM; with OVCAR-3 ovarian it was 4.78 µM and 8.16 µM; in the test with ACHN renal, 12.5 µM and > 25 µM; in the test on HS 578T breast it was 1.53 µM and 1.86 µM; with TK-10 renal, 4.21 µM and 11.6 µM; in the test on HT29 colon, 12.5 µM and 4.83 µM. Besides, the TGI with MOLT-4 leukemia was 12.5 µM and > 25 µM; in the test on IGROV1 ovarian, 12.5 µM and 15.8 µM.

Regarding `Nc1nc2c(s1)CCc1c-2c(Br)n(Cc2ccccc2)c1Br`, the GI50 with NCI-H460 lung is 21300 nM; with OVCAR-3 ovarian, 3900 nM; with ACHN renal, 2220 nM; with HS 578T breast, 25700 nM; in the test on TK-10 renal, 4410 nM; in the test with HT29 colon, 10900 nM. Also, the GI50 in the test with MOLT-4 leukemia is 2330 nM; with IGROV1 ovarian it was 14100 nM. Further, the TGI in the test with NCI-H460 lung stood at 52.9 µM; in the test on OVCAR-3 ovarian, 13.8 µM; with ACHN renal, 5.23 µM; in the test with HS 578T breast it was 93.8 µM; in the test with TK-10 renal, 14.9 µM; in the test on HT29 colon, 27.7 µM. Besides, the TGI is 26.7 µM in the test with MOLT-4 leukemia and 37.5 µM in the test on IGROV1 ovarian.

As to `NC(=O)c1ccc(NN=O)nc1`, the TGI in the test with NCI-H460 lung, in the test with OVCAR-3 ovarian, in the test with ACHN renal, with HS 578T breast, in the test with TK-10 renal and in the test with HT29 colon was over 100 µM each time. Besides, the TGI with MOLT-4 leukemia and with IGROV1 ovarian was over 100 µM throughout.

For the molecule `O=[N+]([O-])c1ccc(Sc2ncnc3nc[nH]c23)c2nonc12`, the GI50 in the test on NCI-H460 lung was 9730 nM; in the test on OVCAR-3 ovarian it was 714 nM; with ACHN renal, 4040 nM; in the test on HS 578T breast, 15400 nM; with TK-10 renal, 2340 nM; in the test with HT29 colon, 3880 nM. For the same molecule, the GI50 in the test on MOLT-4 leukemia was 2070 nM; in the test with IGROV1 ovarian it was 2320 nM. Moreover, the TGI in the test with NCI-H460 lung is 35.2 µM; in the test with OVCAR-3 ovarian, 16.6 µM; in the test with ACHN renal, 16.1 µM; with HS 578T breast it was 77 µM; in the test with TK-10 renal, 23.7 µM; in the test with HT29 colon, 20.6 µM. The TGI was 15.7 µM in the test with MOLT-4 leukemia and 7.64 µM in the test on IGROV1 ovarian.
